Four molecules from article PMC9585585, “Discovery of Small-Molecule Allosteric Inhibitors of PfATC as Antimalarials” (Journal of the American Chemical Society, 2022) can be followed below.

One data set concerns P. falciparum 3D7. The experiment in a line: Growth-inhibition assay of P. falciparum (SYBR Green I). The data set is classed as cell-based, Plasmodium falciparum. To be noted: P. falciparum 3D7, 96 h, read-out: EC50 against blood stage 3D7 cultures. Here is the method:
488Cell culture and growth-inhibition assay of P. falciparum. P. falciparum 3D7 parasites
489(Wellcome Trust Dundee) were maintained in continuous culture at 37 °C and an atmosphere
490consisting of 90% N 2, 5% O2, and 5% CO2 as described previously 30 with modifications.31
491Parasites were maintained in 25 mM 4-(2-hydroxyethyl)-1-piperazineethanesulfonic acid (HEPES)
492and 11.9 mM sodium bicarbonate buffered RPMI 1640 medium supplemented with D-glucose
493(11 mM), hypoxanthine, AlbuMAX-I (0.5% w/v), and 10 µg/mL gentamicin. 0+ blood was
494provided by “Hospital Novo Atibaia” (Brazil) in agreement with the ethics committee at ICB-USP.
495Compounds were tested for their inhibitory effect against P. falciparum 3D7 conducting SYBR
496Green I (Invitrogen) drug assays as reported. 32, 33 Briefly, two-fold serial dilutions of compounds
497were prepared in 96-well plates starting from 100 and 20 µM in technical triplicate and incubated
498for 96 h under normal growth conditions using an initial parasitemia of 0.5% and a hematocrit of
4992% in a volume of 100 µL per well. Parasite proliferation was measured by quantifying DNA via
500SYBR Green I emitted fluorescence in the wells after addition of 100 µL lysis buffer supplemented
501with SYBR Green I (0.02% v/v) and incubation for 1 h at room temperature in the dark.
502Fluorescence was quantified using a CLARIOstar plate reader (BMG Labtech, Germany) at
503excitation and emission wavelength bands of 485 (± 9) and 530 (± 12) nm, respectively. Focal and
504gain adjustment was performed using the negative controls (highest expected fluorescence signal).
505Data was acquired via the CLARIOstar (V5.20) and MARS software, manually normalized, and
506plotted using the nonlinear regression curve fit implemented in GraphPad Prism as described below
507in more detail. Non-treated parasites, highest solvent concentration on parasites, and highest drug
508concentration in medium were used as controls for maximal growth, solvent control, and native
509drug fluorescence, respectively.
511Nonlinear regression fit and analysis of dose-response drug assays. Nonlinear regression as
512implemented in GraphPad Prism 8.4.3 (log(inhibitor) vs. response – Variable slope (four
513parameters)) was used to fit the measured data to interpolate the IC 50 value from the curve. No
514specific model was applied. Data was pre-processed by min-max-scaling according to the
517where y is the fluorescence signal in each well, y minimum the background fluorescence, and ymaximum
518the highest measured fluorescence signal in the untreated wells. Drug concentrations (in µM) were
519transformed to the log(10)of the values. Means of each independent experiment were plotted as
520individual values, and the SD of the mean from the means shown as error bars. The test for
521homoscedasticity was performed to confirm if no weighting of values was appropriate.

Data set [1] deals with T1, PfATC (Plasmodium falciparum, UniProt A0A5K1K910). The experiment in a line: Differential scanning fluorimetry (DSF). To be noted: PfATC 5 µM, read-out: ΔTM of PfATC (thermal stabilization). The data set is classed as binding. An excerpt: (§1) 464Data collection, processing and refinement. All the diffraction data sets were collected using
(§2) 465synchrotron radiation wavelength 1.033200 Å at DESY beamline P11. The data collected for
(§3) 466PfATC crystals grown in presence of fragments and compounds were processed using XDSAPP 25
(§4) 467and Aimless 26, and the structures were solved and initially refined using the DIMPLE pipeline
(§5) 468within CCP4 suite 26 with coordinates of the unliganded PfATC (5ILQ) as a starting model. The
(§6) 469final refinement included manual rebuilding in coot 27 and Refmac5 28. The resulting crystal
(§7) 470structures were deposited in PDB 29. Data collection and processing statistics are show in Table
(§8) 472Differential Scanning Fluorimetry (DSF). The purified PfATC was incubate with 5000 × Sypro
(§9) 473Orange (Invitrogen) and dilution it to 1:400 stock of dye in assay buffer (50 mM Tris-HCl pH =8.0
(§10) 474and 300 mM NaCl). Each reaction consisted of 2 µL compound (10 mM stock in 100% DMSO), 5
(§11) 475µL PfATC-Sypro orange mixture and 43 µL assay buffer. Final protein assay concentration was
(§12) 4765µM, final DMSO concentration war […]. After incubation for 20 min at 20 ℃, the samples
(§13) 477were hated from 25℃ to 95℃ at a rate of 0.5 ℃ min -1. The inflection points of the melting curves
(§14) 478were determined using BioRad CSV 96 control software and processed & plotted by GraphPad.
(§15) 479Microscale Thermophoresis (MST). […]

The target in data set [2] is T1, PfATC. The data set is described as follows: Microscale thermophoresis (MST). The data set is classed as binding. To be noted: n = 3.
Source text: as §1, §2, §3, §4, §5, §6, §7, §8, §9, §10, §11, §12, §13, §14, §15

Data set [3] in a line: Insolubility interpreted from deviation of the MST curve. The data set is classed as physicochemical. To be noted: pH 8, aqueous with cosolvent or surfactant or cyclodextrin, kinetic from dmso stock, MST buffer, read-out: concentration in excess of which the compound is insoluble. The procedure:
We also modified the amino group and generated a new scaffold, suspecting that varying the R1, R2, and R3 groups would generate a series of compounds with optimized binding and improved inhibition (BDAs, Supporting Information Table 1). We evaluated the BDA series in an in vitro activity assay against malarial and human ATC (Figure 3A, Supporting Information Table 1). […] Significant deviations from the sigmoidal distribution of the MST curve are present at concentrations higher than 10 μM, which we have interpreted as indicative of BDA-04 insolubility at concentration in excess of 10 μM. To characterize the mechanism of inhibition by BDAs, enzyme activity assays were performed using BDA-04 as an exemplar (Figure 3F,G).
as §1, §2, §3, §4, §5
469final refinement included manual rebuilding in coot 27 and Refmac5 28. The resulting crystal […]
478were determined using BioRad CSV 96 control software and processed & plotted by GraphPad. […]

The subject of the next data set is HepG2 cells. The experiment in a line: Cytotoxicity on cultured human HepG2 cells. The data set is classed as cell-based. To be noted: at a concentration of 100 μM.

Where “and” joins values, the source holds several entries; their conditions need not be identical. Equal entries are not always repeated. Where two headings read alike, the source gives them in different places.

T1 sequence (A0A5K1K910 entry or part of it): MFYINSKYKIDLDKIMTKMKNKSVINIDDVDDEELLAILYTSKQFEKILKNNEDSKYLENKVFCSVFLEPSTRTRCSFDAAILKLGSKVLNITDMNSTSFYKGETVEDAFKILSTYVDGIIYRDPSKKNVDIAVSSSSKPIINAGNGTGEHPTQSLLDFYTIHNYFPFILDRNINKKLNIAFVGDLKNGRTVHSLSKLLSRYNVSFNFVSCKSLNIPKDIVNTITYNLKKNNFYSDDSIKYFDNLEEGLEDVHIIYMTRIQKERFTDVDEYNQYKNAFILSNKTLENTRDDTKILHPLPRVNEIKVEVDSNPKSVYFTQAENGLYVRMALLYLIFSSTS

One may read the EC50 as the concentration at which the effect is half-maximal. One may read the ΔTm as the shift of the melting midpoint relative to a reference. Usually Kd stands for the concentration at which binding is half-saturated. Read a low Kd as tighter binding. For `CC(C)(C)OC(=O)Nc1sc(-c2ccccc2)cc1C(=O)NCCc1ccccc1` [BDA-04], the EC50 was determined as 2430 nM in the data set with P. falciparum 3D7 and 2400 nM in the data set with P. falciparum 3D7 (Plasmodium falciparum, 3D7, 96 h). At PfATC [1], the ΔTm was determined as 22.8 °C. The molecule further yielded a Kd at PfATC [2] of 66.3 nM. The solubility at 10 min in data set [3] was above 10 µM. The “cytotoxic effect on cultured human HepG2 cells” value with HepG2 cells is listed as “no cytotoxic effect”.
In the case of `CC(C)(C)OC(=O)Nc1sc(-c2ccccc2)cc1C(=O)NCCc1ccc(O)cc1` [BDA-11], the EC50 with P. falciparum 3D7 is 3400 nM and 3370 nM.
Same read-out and setting: next, `CC(C)(C)OC(=O)Nc1sc(-c2ccccc2)cc1C(=O)NCCO` [BDA-14]: 42500 nM; `COc1cccc(CCNC(=O)c2cc(-c3ccccc3)sc2NC(=O)OC(C)(C)C)c1` [BDA-24]: 2000 nM and 2030 nM.
